{
  "source": "patent US9278997B2",
  "about": "“Processes for the manufacture of macrocyclic depsipeptides and new intermediates” (NOVARTIS AG, priority 2011, dated 2016)",
  "origin": "cited, not measured here",
  "molecular_target": "chymotrypsin (Bos taurus, UniProt P00766)",
  "conditions": "from J. Nat. Prod. 68(9), 1324-7 (2005); read-out: IC50 value for inhibition of chymotrypsin",
  "data": [
    {"substance": "(S)-2-acetamido-N^1-((1S,2S,5S,8S,11R,12S,15S,18S,21R)-2-benzyl-21-hydroxy-5-(4-hydroxybenzyl)-15-isobutyl-8-isopropyl-4,11-dimethyl-3,6,9,13,16,22-hexaoxo-10-oxa-1,4,7,14,17-pentaazabicyclo[16.3.1]docosan-12-yl)pentanediamide [Nostopeptin BN920]", "values": [
      {"measurement": "IC50", "result": 31, "unit": "nM"}
    ]}
  ]
}
